# Assay results: PMC7616174, “Development of Novel 4-Arylpyridin-2-one and 6-Arylpyrimidin-4-one Positive Allosteric Modulators of the M1 Muscarinic Acetylcholine Receptor” (ChemMedChem, 2020)
# Where two headings read alike, the source gives them in different places.
# Experiments:
# M1 mAChR = target: T1, M1 mAChR (Homo sapiens, UniProt P11229); assay: β-arrestin 2 recruitment assay (BRET); format: cell-based; details: for αβ (functional cooperativity with ACh) / τB (intrinsic efficacy of the modulator): antilog, in parentheses; for log τB (logarithm of intrinsic efficacy of the modulator) / log αβ (logarithm of functional cooperativity between ACh and modulator): operational model; for log αβ (logarithm of functional cooperativity between ACh and modulator): pKB constrained to binding value
# T1 construct: expressed in transfected cells; host or cells: parental FlpIn CHO cells (transient, PEI)
# T1 sequence (P11229 1-460): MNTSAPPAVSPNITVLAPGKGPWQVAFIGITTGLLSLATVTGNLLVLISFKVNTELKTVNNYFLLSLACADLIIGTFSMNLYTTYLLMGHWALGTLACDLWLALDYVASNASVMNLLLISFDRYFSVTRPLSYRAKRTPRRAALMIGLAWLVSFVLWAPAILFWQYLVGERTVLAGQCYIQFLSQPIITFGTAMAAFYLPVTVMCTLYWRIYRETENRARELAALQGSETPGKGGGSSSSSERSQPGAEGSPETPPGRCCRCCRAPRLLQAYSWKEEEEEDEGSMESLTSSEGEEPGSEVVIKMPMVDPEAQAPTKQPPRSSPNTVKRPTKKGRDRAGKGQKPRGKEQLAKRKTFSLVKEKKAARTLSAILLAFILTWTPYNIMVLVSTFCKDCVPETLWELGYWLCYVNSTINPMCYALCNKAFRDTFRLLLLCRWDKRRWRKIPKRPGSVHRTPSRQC
# Excerpt: (§1) The compounds were then fully characterised in two functional assays (Figure 2C and D); the Gq-coupled IP1 accumulation assay (Figure S2), which was used for the initial screening of the compounds, and a β-arrestin 2 recruitment assay (Figure S3). The operational efficacy (τB) values for the modulators and their functional cooperativity estimates with ACh (logαβACh) at both signalling pathways were estimated by applying an operational model of allosterism and agonism to the data [Eq. (3)],[16] and are listed in Table 5.
# Parental FlpIn CHO cells were plated at 30000 cells/well of 96-well white Culture plates (Perkin Elmer Life Sciences) and transiently transfected with 10 ng/well of M1 Renilla luciferase (Rluc)-8 and 40 ng/well of YFP-β-arrestin 2 using linear polyethyleneimine (PEI/DNA ratio 6:1) diluted in 150 mM NaCl. DNA:PEI complexes were formed by 15 min incubation at room temperature then added to the cells and incubated at 37°C for 24 h prior to use. Cells were then washed and equilibrated in Hanks’ balanced salt solution for 1 h at 37°C. Coelenterazine h at a final concentration of 5 μM was added to each well, followed by addition of increasing concentrations of ACh in the absence or presence of increasing concentrations of each modulator. Lumines-cence and fluorescence signals were measured 5 min after agonist stimulation using the LUMIstar Omega plate reader (BMG LabTech, Offenburg, Germany). […] Data were then normalized to the maximum response to ACh.
# (§2) Functional interaction studies between ACh and allosteric modulators in IP1 and β-arrestin 2 recruitment assays were analysed according to a three-parameter logistic equation or the following operational model of allosterism and agonism [Eq. (3)].[16] E=Basal+(Em−Basal)([A](KB+αβ[B])+τB[B]EC50)^n/EC50n(KB+[B])^n+([A](KB+αβ[B])+τB[B]EC50)^n where Em is the maximal possible system response, and Basal is the response in the absence of agonist. [A] and [B] are concentrations of orthosteric and allosteric ligands, respectively. KB is the equilibrium dissociation constant of allosteric ligand, and EC50 is the concentration of orthosteric agonist required to achieve half maximal response. α and β represent the magnitude of the allosteric effects on orthosteric ligand affinity and efficacy, respectively; τB is the efficacy of allosteric ligand, and n is the slope factor of the transducer function that links occupancy to response.
# hM1 mAChR [1] = target: T2, hM1 mAChR (Homo sapiens, UniProt P11229); assay: IP1 accumulation assay (ACh concentration-response curves in absence or presence of modulator); format: cell-based; details: for αβ (functional cooperativity with ACh) / τB (intrinsic efficacy of the modulator) / log τB (logarithm of intrinsic efficacy of the modulator) / log αβ (logarithm of functional cooperativity between ACh and modulator): IP1 accumulation; for αβ (functional cooperativity with ACh) / τB (intrinsic efficacy of the modulator): antilog, in parentheses; for log τB (logarithm of intrinsic efficacy of the modulator) / log αβ (logarithm of functional cooperativity between ACh and modulator): operational model; for log αβ (logarithm of functional cooperativity between ACh and modulator): pKB constrained to binding value; for ΔpEC50 [1 μM]: change in ACh pEC50 in presence of M1 PAM compared to control curve / activation at 1 µM: 1 μM modulator; for ΔpEC50 [1 μM]: change in ACh pEC50 in presence of M1 PAM compared to control curve / activation at 1 µM / ΔpEC50 [10 μM]: change in ACh pEC50 in presence of M1 PAM compared to control curve / activation at 10 µM: FlpIn CHO hM1 cells, mean ± SEM, 3 experiments; for activation at 1 µM: read-out: Δbaseline [1 μM]: change in basal response in presence of M1 PAM compared to control curve; for ΔpEC50 [10 μM]: change in ACh pEC50 in presence of M1 PAM compared to control curve / activation at 10 µM: 10 μM modulator; for activation at 10 µM: read-out: Δbaseline [10 μM]: change in basal response in presence of M1 PAM compared to control curve
# T2 construct: expressed in transfected cells
# T2 sequence (P11229 1-460): T1 sequence (P11229 1-460)
# Description: Functional activity of the synthesized analogues as racemic mixtures was investigated in IP1 accumulation assays at the M1 mAChR, as described previously.[13–14] ACh concentration-response curves were generated in the absence or presence of a 1 and 10 μM concentration of each modulator. The change in baseline activity (Δbaseline) is an approximate measure of direct allosteric agonism (τB), whereas the pEC50 shift (ΔpEC50) is an approximate measure of functional cooperativity (αβ) of each modulator with ACh in the investigated signalling pathway. We aimed to identify modulators with various degrees of allosteric agonism and modulatory effects on ACh response, as these could generate distinct in vivo outcomes for applications in different conditions in the CNS or gastrointestinal (GI) tract.[[10g,h,j]]
# as §1
# FlpIn CHO cells stably expressing the hM1 mAChR were seeded at 25000 per well of 96-well transparent cell culture plates and grown overnight. […] Cells were then stimulated with increasing concentration of ACh in the absence or presence of increasing concentrations of each modulator for 1 h at 37°C. […] Seven μL of cell lysates were transferred into wells of 384-well Proxiplates (Perki-nElmer Life Sciences), and IP1 levels were measured using the IP-One assay kit (Cisbio, Codolet, France). […] The signal was expressed as the HTRF ratio, interpolated from the standard curve, and normalized to the maximum response to ACh.
# Changes in both baseline and pEC50 were quantified by subtracting the estimates at each M1 PAM concentrations with the control values. Propagation of the error on baseline and potency values were determined as follows [Eq. (1)]: σΔ=σPAM2+σcont.2 where σΔ is the standard error of the mean (SEM) for the change in value, and σPAM and σcont. are the SEM from the three-parameter logistic equation analysis in presence or absence of M1 PAM, respectively.
# as §2
# hM1 mAChR [2] = target: T2, hM1 mAChR; assay: Whole-cell [3H]NMS equilibrium competition radioligand binding; details: [3H]NMS binding; for α (binding cooperativity with ACh): antilog
# Description: To determine the affinity (pKB) of the allosteric modulators for the allosteric site, and their binding cooperativity with ACh (log αACh) at the M1 mAChR, whole cell equilibrium competition binding studies were performed, using [^3H]NMS to label the orthosteric site.
# FlpIn Chinese hamster ovary (CHO) cells stably expressing the hM1 mAChR were grown in Dulbecco’s modified Eagle’s medium (DMEM) (Invitrogen, Carlsbad, CA) supplemented with 5% foetal bovine serum (FBS) (Thermo-Trace, Melbourne, Australia) and 300 μg/mL G418 (Invitrogen, Carlsbad, CA). The cells were plated at 50,000 cells per well of 96-well white clear bottom plates (Greiner Bio-one, Kremsmünster, Austria), and were grown overnight. The following day, cells were washed twice with Phosphate Buffered Saline (PBS), and incubated with increasing concentrations of ACh (Sigma) in the absence or presence of increasing concentrations of each modulator and 0.2 nM [^3H]NMS (PerkinElmer Life Sciences) in binding buffer (20 mM HEPES, 100 mM NaCl, 10 mM MgCl2, pH 7.4) for 5 h at room temperature. Nonspecific binding was determined using atropine at the final concentration of 10 μM. The assays were terminated by rapid removal of the unbound radioligand followed by two washes with 100 μL/well ice-cold 0.9% NaCl buffer. Radioactivity was determined by addition of 100 μL/well Ultima gold (PerkinElmer Life Sciences) and counting in a MicroBeta plate reader (PerkinElmer Life Sciences).
# Binding interaction studies with allosteric ligands were fitted to the following allosteric ternary complex model [Eq. (2)][15] Y=Bmax|A|/[Λ]+[KAKB/α^′[B]+KB][1+[I]/K1+[B]/KB+α[I][B]/KIKB] where Bmax is the total number of receptors, [A], [B] and [I] denote the concentrations of radioligand, allosteric modulator, and orthosteric ligand, respectively; KA, KB and KI are their respective equilibrium dissociation constants. α’ and α are the affinity cooperativity factors between the allosteric ligand and radioligand or the allosteric modulator and ACh, respectively. Values of α or α’ > 1 denote positive cooperativity, values < 1 but > 0 denote negative cooperativity, and a value of 1 indicates neutral coopera-tivity.
# [3] = allosteric ternary complex model, mean ± SEM, read-out: pKB (negative logarithm of the allosteric modulator equilibrium dissociation constant) (converted)
αβ (functional cooperativity with ACh) (M1 mAChR),τB (intrinsic efficacy of the modulator) (M1 mAChR),log τB (logarithm of intrinsic efficacy of the modulator) (M1 mAChR),log αβ (logarithm of functional cooperativity between ACh and modulator) (M1 mAChR),αβ (functional cooperativity with ACh) (hM1 mAChR [1]),τB (intrinsic efficacy of the modulator) (hM1 mAChR [1]),log τB (logarithm of intrinsic efficacy of the modulator) (hM1 mAChR [1]),log αβ (logarithm of functional cooperativity between ACh and modulator) (hM1 mAChR [1]),α (binding cooperativity with ACh) (hM1 mAChR [2]; in parentheses),log αACh (logarithm of binding cooperativity between ACh and modulator) (hM1 mAChR [2]; mean ± SEM),ΔpEC50 [1 μM]: change in ACh pEC50 in presence of M1 PAM compared to control curve (hM1 mAChR [1]),activation at 1 µM (hM1 mAChR [1]),ΔpEC50 [10 μM]: change in ACh pEC50 in presence of M1 PAM compared to control curve (hM1 mAChR [1]),activation at 10 µM (hM1 mAChR [1]),Kb (hM1 mAChR [2]; [3]),"Kb (hM1 mAChR [2]; antilog of pKB, in parentheses, read-out: KB (converted))",Compound
14,,,1.16±0.17,30,1,,1.48±0.11,52,1.72±0.20,0.29±0.05,4.8 ± 1.4%,1.31±0.06,27 ± 1.5%,29.5 µM,30 µM,"Cn1cc(-c2ccc(COc3ccccc3-c3ccn(C4CCCCC4=O)c(=O)c3)cc2)cn1 (centres unmarked) [Compound 13d, 4-(2-((4-(1-Methyl-1H-pyrazol-4-yl)benzyl)oxy)phenyl)-1-(2-oxocy-clohexyl)pyridin-2(1H)-one]"
65,1,–0.01±0.05,1.81±0.09,100,4,0.60±0.03,2.00±0.10,112,2.05±0.17,0.88±0.09,15.8 ± 2.3%,1.31±0.15,58.3 ± 2.3%,11 µM,,"Cn1cc(-c2ccc(COc3ccccc3-c3ccn(C4CCCCC4O)c(=O)c3)cc2)cn1 (centres unmarked) [Compound 1, 1-(2-Hydroxycyclohexyl)-4-(2-((4-(1-methyl-1H-pyrazol-4-yl)-benzyl)oxy)phenyl)pyridin-2(1H)-one]"
955,1,0.07±0.05,2.98±0.10,562,6,0.78±0.04,2.75±0.11,380,2.58±0.18,1.88±0.37,70.8 ± 4%,2.28±0.77,90.3 ± 3.1%,6.03 µM,,"Cn1cc(-c2ccc(COc3ccsc3-c3ccn(C4CCCCC4O)c(=O)c3)cc2)cn1 (centres unmarked) [Compound 7h, 1-(2-Hydroxycyclohexyl)-4-(3-((4-(1-methyl-1H-pyrazol-4-yl)benzyl)oxy)thiophen-2-yl)pyridin-2(1H)-one]"

Compound,αβ (functional cooperativity with ACh) (M1 mAChR),τB (intrinsic efficacy of the modulator) (M1 mAChR),log τB (logarithm of intrinsic efficacy of the modulator) (M1 mAChR),log αβ (logarithm of functional cooperativity between ACh and modulator) (M1 mAChR),αβ (functional cooperativity with ACh) (hM1 mAChR [1]),τB (intrinsic efficacy of the modulator) (hM1 mAChR [1]),log τB (logarithm of intrinsic efficacy of the modulator) (hM1 mAChR [1]),log αβ (logarithm of functional cooperativity between ACh and modulator) (hM1 mAChR [1]),α (binding cooperativity with ACh) (hM1 mAChR [2]; in parentheses),log αACh (logarithm of binding cooperativity between ACh and modulator) (hM1 mAChR [2]; mean ± SEM),ΔpEC50 [1 μM]: change in ACh pEC50 in presence of M1 PAM compared to control curve (hM1 mAChR [1]),activation at 1 µM (hM1 mAChR [1]),ΔpEC50 [10 μM]: change in ACh pEC50 in presence of M1 PAM compared to control curve (hM1 mAChR [1]),activation at 10 µM (hM1 mAChR [1]),Kb (hM1 mAChR [2]; [3]),"Kb (hM1 mAChR [2]; antilog of pKB, in parentheses, read-out: KB (converted))"
"COc1ccc(Cn2cc(C(=O)O)c(=O)c3ccccc32)cc1 [BQCA, reference compound]",89,1,–0.03±0.10,1.95±0.19,389,6,0.76±0.03,2.59±0.07,245,2.39±0.22,,,,,,
